Reference: US12312370B2, “Immunoproteasome inhibitors” (Principia Biopharma Inc., priority 2017, dated 2025)
Where two headings read alike, the source gives them in different places.

How the values were obtained:
[1] = tested on: multiple myeloma cell lines and primary patient tumor cells; conditions: including those resistant to conventional and novel prior therapies; cited from earlier work
[2] = target: constitutive proteasome β5c unit (Homo sapiens, UniProt P28074); experiment: Caliper-based proteasome enzymatic activity assay, β5c; format: biochemical; conditions: human recombinant constitutive proteasome 0.3 nM, FAM-labeled peptide substrate 1 μM, rt 3 h; read-out: β5c subunit IC50
PBMC/LMP7 [3] = target: T1, PBMC/LMP7 (Homo sapiens, UniProt P28062); experiment: Proteasome-Glo inhibition of proteasome activity in cells, PBMC/LMP7; format: cell-based; conditions: 2 h incubation at 37° C.
Experimental: (§1) The cell-based effects of a compound described herein on the immunoproteasome were determined by measuring inhibition of proteasome activity in cells using the Proteasome-Glo™ Cell-Based Reagent (Promega, Madison WI). The Proteasome-Glo™ assay contains a specific luminogenic proteasome substrate in a buffer optimized for cell permeabilization, proteasome activity, and luciferase activity. For the chymotrypsin-like activity (LMP7 and β5c), the peptide substrate is Suc-LLVY-aminoluciferin (Succinyl-leucine-leucine-valine-tyrosine-aminoluciferin). Cleavage of the substrate by proteasome results in luminescent signal which is proportional to the proteasome activity. The cell line THP-1 (a monocytic leukemia cell line enriched in immunoproteasome), the cell line HT-29 (a colorectal adenocarcinoma cell line enriched in constitutive proteasome), and primary human peripheral blood mononuclear cells (PBMC) were used to assess proteasome activity. Cells were seeded in a 96-well plate at 10,000 cells per well in RPMI 1640 high glucose medium with 10% fetal bovine scrum (FBS). Compound dilutions were added to cells starting at a concentration of 5 uM and decreasing in tripling dilutions. The final DMSO concentration was 1%. The concentration range was adjusted as needed for compounds of different potencies. The cells treated with compounds were incubated for 2 h at 37° C. in 5% CO2. At the end of the 2 hour incubation period, cells were transferred to white 384 well assay plates. 20 uL of Proteasome-Glo™ Reagent was added to each well and incubated for 10 minutes at rt. The plate was read in the Analyst HT instrument (Molecular Devices, Sunnyvale, CA) using luminescence mode. The percent inhibition of activity was plotted as a function of log compound concentration. The IC50 was then calculated for each compound using Prism software from GraphPad Software Inc. (San Diego, CA).

[4] = target: immunoproteasome LMP7/B5i subunit (Homo sapiens, UniProt P28062); experiment: Caliper-based proteasome enzymatic activity assay, LMP7; format: biochemical; conditions: human recombinant immunoproteasome 0.3 nM, FAM-labeled peptide substrate 1 μM, rt 3 h; read-out: LMP7 subunit IC50
HT29/B5c [5] = target: T2, HT29/B5c (Homo sapiens, UniProt P28074); experiment: Proteasome-Glo inhibition of proteasome activity in cells, HT29/B5c; format: cell-based; conditions: HT-29 cells, 2 h incubation at 37° C.
Experimental: as §1

PBMC/LMP2 [6] = target: T3, PBMC/LMP2 (Homo sapiens, UniProt P28065); experiment: Proteasome-Glo inhibition of proteasome activity in cells, PBMC/LMP2; format: cell-based; conditions: 2 h incubation at 37° C.
[7] = target: immunoproteasome LPM2/β1i subunit (Homo sapiens, UniProt P28065); experiment: Caliper-based proteasome enzymatic activity assay, LMP2; format: biochemical; conditions: human recombinant immunoproteasome 0.3 nM, FAM-labeled peptide substrate 1 μM, rt 2 h
HT29/B5c [8] = target: T2, HT29/B5c; experiment: Durability of binding in cells, wash-out assay, HT29/B5c; format: cell-based; conditions: 2 h incubation, inhibitor washout
Experimental: (§2) The durability of binding of proteasome inhibitors was assessed in cells using wash-out assays and the Proteasome-Glo™ Reagent kit. THP-1 cells. HT-29 cells, or PBMC were incubated with an 8-fold dilution series of inhibitor for 2 h. Following 2 h of incubation, cells were washed using 3 occasions of centrifugation followed by resuspension in culture medium. Following inhibitor washout, cells were returned to culture for either 30 minutes, 4 h, or 18 h. Cells were then transferred to white 384 plates, and 20 uL of Proteasome-Glo™ Reagent was added to each well for 10 minutes. Plates were then read on an Analyst HT plate reader using luminescence mode. The percent inhibition of activity was plotted as a function of log compound concentration. The IC50 was then calculated for each compound using Prism software from GraphPad.

PBMC/LMP7 [9] = target: T1, PBMC/LMP7; experiment: Durability of binding in cells, wash-out assay, PBMC/LMP7; format: cell-based; conditions: 2 h incubation, inhibitor washout
Experimental: as §2

PBMC/LMP2 [10] = target: T3, PBMC/LMP2; experiment: Durability of binding in cells, wash-out assay, PBMC/LMP2; format: cell-based; conditions: 2 h incubation, inhibitor washout
Experimental: as §2

tumor growth = conditions: in vivo; cited from earlier work
prostate PC-3 cell line = conditions: PC-3 cell line in vitro; cited from earlier work
Th1/17 differentiation [11] = conditions: human; cited from earlier work
MRL/lpr lupus model = conditions: cited from earlier work
[12] = tested on: Hashimoto's thyroiditis model; conditions: autoantibody-driven Hashimoto's thyroiditis model; cited from earlier work
Th1/17 differentiation [13] = conditions: mouse; cited from earlier work
[14] = tested on: murine DSS-induced colitis model; conditions: cited from earlier work
[15] = tested on: murine collagen-induced arthritis; conditions: cited from earlier work

| SMILES | IC50 [2] | IC50 (PBMC/LMP7 [3]) | IC50 [4] | IC50 [7] | other results |
| --- | --- | --- | --- | --- | --- |
| CC1=C(C(=O)N[C@H](C)C(=O)N[C@@H](Cc2c[nH]c3ccccc23)C(=O)N[C@@H](Cc2ccccc2)C(=O)[C@@]2(C)CO2)Cc2ccccc21 [PR-924] | – | – | – | – | growth of multiple myeloma cell lines and primary patient tumor cells [1]: inhibit growth |
| CC(=O)N[C@@H](CCCCNC(=O)C(C#N)=CC(C)C)C(=O)N[C@@H](Cc1ccccc1)B(O)O [Example 11, ((R)-1-((S)-2-acetamido-6-(2-cyano-4-methylpent-2-enamido)hexanamido)-2-phenylethyl)boronic acid] | 4 nM | 390 nM | 2.6 nM | – | – |
| CC(C)C=C(C#N)C(=O)N1CCC[C@@H]1COC[C@H](NC(=O)c1cc(Cl)ccc1Cl)C(=O)N[C@@H](Cc1ccccc1)B(O)O [Example 14, ((R)-1-((S)-3-(((R)-1-(2-cyano-4-methylpent-2-enoyl)pyrrolidin-2-yl)methoxy)-2-(2,5-dichlorobenzamido)propanamido)-2-phenylethyl)boronic acid] | 2.4 nM | 31 nM | 1.7 nM | 138 nM | IC50 (HT29/B5c [5]): 60 nM; IC50 (PBMC/LMP2 [6]): 274 nM; IC50 (HT29/B5c [8]; 30 min in culture): 82 nM; IC50 (HT29/B5c [8]; 4 hr in culture): 87 nM; IC50 (HT29/B5c [8]; 18 hr in culture): 1850 nM; IC50 (PBMC/LMP7 [9]; 30 min in culture): 50 nM; IC50 (PBMC/LMP7 [9]; 4 hr in culture): 93 nM; IC50 (PBMC/LMP7 [9]; 18 hr in culture): 146 nM; IC50 (PBMC/LMP2 [10]; 30 min in culture): 27 nM; IC50 (PBMC/LMP2 [10]; 4 hr in culture): 505 nM; IC50 (PBMC/LMP2 [10]; 18 hr in culture): 2960 nM |
| CCCCCCC(=O)N[C@@H](C)C(=O)N[C@@H](CC(C)C)C(=O)[C@@]1(CO[Si](C)(C)C(C)(C)C)CO1 [UK-101] | – | – | – | – | tumor growth (tumor growth): significantly suppressed tumor growth; apoptosis (prostate PC-3 cell line): induced apoptosis |
| CC(C)C=C(C#N)C(=O)NCCCC[C@H](NCC(F)(F)F)C(=O)N[C@@H](Cc1ccccc1)B(O)O [Example 13, ((R)-1-((S)-6-(2-cyano-4-methylpent-2-enamido)-2-((2,2,2-trifluoroethyl)amino)hexanamido)-2-phenylethyl)boronic acid] | 292 nM | 50 nM | 67.1 nM | > 5000 nM | IC50 (HT29/B5c [5]): 242 nM |
| CC(C)C=C(C#N)C(=O)N1CCC[C@@H]1CNC(=O)N[C@@H](Cc1ccccc1)B(O)O [Example 32, ((R)-1-(3-(((R)-1-(2-cyano-4-methylpent-2-enoyl)pyrrolidin-2-yl)methyl)ureido)-2-phenylethyl)boronic acid] | > 5000 nM | 110 nM | 37.2 nM | > 5000 nM | – |
| CC(C)C=C(C#N)C(=O)NCCCC[C@H](NC(=O)c1cc(Cl)ccc1Cl)C(=O)N[C@@H](Cc1ccccc1)B(O)O [Example 8, ((R)-1-((S)-6-(2-cyano-4-methylpent-2-enamido)-2-(2,5-dichlorobenzamido)hexanamido)-2-phenylethyl)boronic acid] | 4.4 nM | 39 nM | 2.4 nM | 79 nM | – |
| COc1ccc(C[C@H](NC(=O)[C@H](C)NC(=O)CN2CCOCC2)C(=O)N[C@@H](Cc2ccccc2)C(=O)[C@@]2(C)CO2)cc1 [PR-957] | – | – | – | – | Th1/17 differentiation (Th1/17 differentiation [11]): potently block; disease progression (MRL/lpr lupus model): prevented disease progression; plasma cell numbers and anti-dsDNA IgG levels (MRL/lpr lupus model): reduced plasma cell numbers and anti-dsDNA IgG levels; efficacy [12]: efficacious; Th1/17 differentiation (Th1/17 differentiation [13]): potently block; inflammation and tissue destruction [14]: reduced inflammation and tissue destruction; disease activity [15]: significantly inhibit disease activity |

Further lines, with some results ahead:

| IC50 [2] | IC50 (PBMC/LMP7 [3]) | IC50 [4] | IC50 [7] | SMILES | other results |
| --- | --- | --- | --- | --- | --- |
| 308 nM | 39 nM | 22 nM | – | N#CC(=CC1CC1)C(=O)N1CCC[C@@H]1COC[C@H](NCC(F)(F)F)C(=O)N[C@@H](Cc1ccccc1)B(O)O [Example 22, (R)-1-((S)-3-(((R)-1-(2-cyano-3-cyclopropylacryloyl)pyrrolidin-2-yl)methoxy)-2-(2,2,2-trifluoroethylamino)propanamido)-2-phenylethylboronic acid] | – |
| 5 nM | 35 nM | 4.3 nM | 2.7 nM | C=CC(=O)N(C)c1cccc(C[C@H](NC(=O)c2cc(Cl)ccc2Cl)C(=O)N[C@@H](Cc2ccccc2)B(O)O)c1 [Example 15, ((R)-1-((S)-2-(2,5-dichlorobenzamido)-3-(3-(N-methylacrylamido)phenyl)propanamido)-2-phenylethyl)boronic acid] | IC50 (HT29/B5c [5]): 141 nM |
| 8.1 nM | 34 nM | 2.4 nM | 483 nM | CC(C)C=C(C#N)C(=O)N(C)c1cccc(C[C@H](NC(=O)c2cc(Cl)ccc2Cl)C(=O)N[C@@H](Cc2ccccc2)B(O)O)c1 [Example 20, ((R)-1-((S)-3-(3-(2-cyano-N,4-dimethylpent-2-enamido)phenyl)-2-(2,5-dichlorobenzamido)propanamido)-2-phenylethyl)boronic acid] | IC50 (PBMC/LMP2 [6]): 208 nM |
| 411 nM | 28 nM | 10 nM | 701 nM | CC(C)C=C(C#N)C(=O)N1CCCC[C@@H]1COC[C@H](NCC(F)(F)F)C(=O)N[C@@H](Cc1ccccc1)B(O)O [Example 25, ((R)-1-((S)-3-(((R)-1-(2-cyano-4-methylpent-2-enoyl)piperidin-2-yl)methoxy)-2-((2,2,2-trifluoroethyl)amino)propanamido)-2-phenylethyl)boronic acid] | – |
| 21.1 nM | 73 nM | 2.5 nM | – | CC(C)C=C(C#N)C(=O)N(C)c1cccc(C[C@H](NC(=O)c2cnccn2)C(=O)N[C@@H](Cc2ccccc2)B(O)O)c1 [Example 21, ((R)-1-((S)-3-(3-(2-cyano-N,4-dimethylpent-2-enamido)phenyl)-2-(pyrazine-2-carboxamido)propanamido)-2-phenylethyl)boronic acid] | – |
| 964 nM | 307 nM | 319 nM | > 5000 nM | CC(C)C=C(C#N)C(=O)N1CCC(CCCC(=O)N[C@@H](Cc2ccccc2)B(O)O)CC1 [Example 29, (R)-(1-(4-(1-(2-cyano-4-methylpent-2-enoyl)piperidin-4-yl)butanamido)-2-phenylethyl)boronic acid] | IC50 (HT29/B5c [5]): 3590 nM |
